Our source for the IC50 and Ki values is ChEMBL document CHEMBL1909046, “DrugMatrix in vitro pharmacology data”.

Structures are written as SMILES.

Data set [1] deals with 5-hydroxytryptamine receptor 2B (Homo sapiens, UniProt P41595). It is filed as cell membranes, CHO-K1, Membrane.
In a further data set the target is T1, Interstitial collagenase (Homo sapiens, UniProt P03956).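 Note: MMP-1 enzyme inhibition assay using a peptide substrate; in other assays of this panel Not Active means under 50% inhibition at 10 µM.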
T1 sequence (P03956 whole entry): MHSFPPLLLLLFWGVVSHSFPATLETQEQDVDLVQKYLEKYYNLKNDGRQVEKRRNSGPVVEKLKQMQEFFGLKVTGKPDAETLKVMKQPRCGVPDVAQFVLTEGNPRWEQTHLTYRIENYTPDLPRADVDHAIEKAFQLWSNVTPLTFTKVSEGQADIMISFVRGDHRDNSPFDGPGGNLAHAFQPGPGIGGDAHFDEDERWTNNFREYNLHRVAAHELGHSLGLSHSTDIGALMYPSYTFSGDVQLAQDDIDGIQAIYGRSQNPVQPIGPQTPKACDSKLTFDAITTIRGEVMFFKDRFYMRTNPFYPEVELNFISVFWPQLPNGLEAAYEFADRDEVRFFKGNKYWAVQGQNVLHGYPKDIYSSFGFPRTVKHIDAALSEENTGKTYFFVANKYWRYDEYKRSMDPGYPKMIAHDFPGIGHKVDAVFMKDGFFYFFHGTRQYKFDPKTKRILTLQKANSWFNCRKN
As to the kind of experiment: biochemical. The class given is tissue-based, Rheumatoid synovial fibroblasts.

A short description of data set [2]: DRUGMATRIX: Phosphodiesterase PDE4 enzyme inhibition (substrate: [3H]cAMP + cAMP). Conditions: u-937, Not Active = under 50% inhibition at 10 µM.
The target of the next data set is T2, Cytochrome P450 2A6 (Homo sapiens, UniProt P11509). Note: in other assays of this panel Not Active means under 50% inhibition at 10 µM.
T2 sequence (P11509 whole entry): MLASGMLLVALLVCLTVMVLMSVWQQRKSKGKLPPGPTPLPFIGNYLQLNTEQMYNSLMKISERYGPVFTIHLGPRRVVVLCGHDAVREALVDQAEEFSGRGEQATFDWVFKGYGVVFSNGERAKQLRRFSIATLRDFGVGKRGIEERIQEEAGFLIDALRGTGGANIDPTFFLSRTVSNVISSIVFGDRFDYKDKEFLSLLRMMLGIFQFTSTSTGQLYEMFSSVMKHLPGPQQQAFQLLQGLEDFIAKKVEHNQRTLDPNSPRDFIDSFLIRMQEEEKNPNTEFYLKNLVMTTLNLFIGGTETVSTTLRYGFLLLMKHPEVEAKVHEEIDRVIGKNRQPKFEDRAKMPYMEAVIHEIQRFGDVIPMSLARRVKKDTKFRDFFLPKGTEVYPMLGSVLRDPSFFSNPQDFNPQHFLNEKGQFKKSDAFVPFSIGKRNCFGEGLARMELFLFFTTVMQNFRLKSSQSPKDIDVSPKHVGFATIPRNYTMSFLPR
Particulars: bti-tn-5b1-4.

Data set [3] is described as follows: DRUGMATRIX: Leukotriene, BLT (LTB4) radioligand binding (ligand: [3H]LTB4). Particulars: u-937; Not Active = under 50% inhibition at 10 µM. The class given is cell membranes, Membrane.
The target in data set [4] is T3, Cholecystokinin receptor type A (Homo sapiens, UniProt P32238). Note: in other assays of this panel Not Active means under 50% inhibition at 10 µM.
T3 sequence (P32238 whole entry): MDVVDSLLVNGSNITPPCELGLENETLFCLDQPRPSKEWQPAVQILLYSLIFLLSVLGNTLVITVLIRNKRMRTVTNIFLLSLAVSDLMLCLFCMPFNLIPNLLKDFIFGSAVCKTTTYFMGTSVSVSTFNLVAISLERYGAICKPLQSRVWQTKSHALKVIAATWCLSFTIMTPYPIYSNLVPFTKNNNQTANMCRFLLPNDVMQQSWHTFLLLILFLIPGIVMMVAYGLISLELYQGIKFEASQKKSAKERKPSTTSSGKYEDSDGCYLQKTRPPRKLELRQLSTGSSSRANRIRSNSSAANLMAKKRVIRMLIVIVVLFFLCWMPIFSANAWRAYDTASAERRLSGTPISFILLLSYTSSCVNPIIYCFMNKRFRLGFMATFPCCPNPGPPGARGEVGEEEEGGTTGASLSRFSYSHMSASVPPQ
The class given is cell membranes, Membrane. Particulars: 1321-n1.

For data set [5], the target named is T4, Cysteinyl leukotriene receptor 1 (Homo sapiens, UniProt Q9Y271). Note: in other assays of this panel Not Active means under 50% inhibition at 10 µM.
T4 sequence (Q9Y271 whole entry): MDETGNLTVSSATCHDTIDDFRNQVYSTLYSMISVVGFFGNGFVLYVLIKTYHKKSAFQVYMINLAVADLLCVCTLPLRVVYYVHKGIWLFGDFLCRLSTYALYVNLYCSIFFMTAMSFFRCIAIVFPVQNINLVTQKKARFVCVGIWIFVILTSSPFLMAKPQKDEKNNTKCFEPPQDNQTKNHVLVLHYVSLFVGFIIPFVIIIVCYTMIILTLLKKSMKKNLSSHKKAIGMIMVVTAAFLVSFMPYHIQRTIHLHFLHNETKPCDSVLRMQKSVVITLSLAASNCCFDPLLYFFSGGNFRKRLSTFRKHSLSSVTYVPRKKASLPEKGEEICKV
The class given is cell membranes, Membrane. Particulars: cho-k1.

5-hydroxytryptamine receptor 2B, sequence (P41595 whole entry): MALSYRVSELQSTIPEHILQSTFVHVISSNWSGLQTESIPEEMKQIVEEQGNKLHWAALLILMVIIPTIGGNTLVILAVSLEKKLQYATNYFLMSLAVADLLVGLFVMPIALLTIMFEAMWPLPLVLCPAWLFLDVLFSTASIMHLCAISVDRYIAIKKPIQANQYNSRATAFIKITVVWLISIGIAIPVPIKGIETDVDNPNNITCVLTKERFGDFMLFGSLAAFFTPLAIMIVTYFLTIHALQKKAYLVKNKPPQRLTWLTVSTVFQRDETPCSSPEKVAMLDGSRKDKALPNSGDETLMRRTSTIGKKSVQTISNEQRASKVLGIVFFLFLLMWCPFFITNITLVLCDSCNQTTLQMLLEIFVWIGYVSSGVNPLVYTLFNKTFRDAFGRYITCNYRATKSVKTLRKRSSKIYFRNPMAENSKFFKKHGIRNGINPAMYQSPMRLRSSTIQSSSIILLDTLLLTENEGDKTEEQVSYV

With `CCOc1nc2cccc(C(=O)O)c2n1Cc1ccc(-c2ccccc2-c2nnn[nH]2)cc1`, the half-inhibitory concentration (IC50) (in general, the concentration that inhibits the measured activity by half) is “Not Active” in data set [1] (cho-k1); “Not Active” against Interstitial collagenase; 276 nM in data set [2] (read-out: IC50); “Not Active” at Cytochrome P450 2A6; “Not Active” in data set [3]; “Not Active” in data set [4]. The IC50 entry in data set [5] is reported as “Not Active”. In addition, the Ki result (at Cytochrome P450 2A6; in data set [3]) was “Not Active” throughout.

In the case of `O=C(O)CCCc1cccs1`, the IC50 result (in data set [1] (cho-k1); on Interstitial collagenase; in data set [2]; at Cytochrome P450 2A6; in data set [3]; in data set [4]) was “Not Active” each time. The IC50 result in data set [5] is “Not Active”. For the same compound, the inhibitory constant (Ki) entry (in data set [2]; at Cytochrome P450 2A6; in data set [3]) was “Not Active” each time.

For `COc1ccccc1N`, the half-inhibitory concentration (IC50) result (in data set [1] (cho-k1); at Interstitial collagenase; in data set [2]; on Cytochrome P450 2A6; in data set [3]; in data set [4]) was “Not Active” throughout. In addition, the half-inhibitory concentration (IC50) entry in data set [5] is recorded as “Not Active”. The Ki entry (in data set [2]; on Cytochrome P450 2A6; in data set [3]) was “Not Active” each time.

`O=C(c1ccccc1F)N1CCC(Cc2ccccc2)CC1`: the IC50 entry (in data set [1] (cho-k1); against Interstitial collagenase; in data set [2]; at Cytochrome P450 2A6; in data set [3]; in data set [4]) was “Not Active” each time. Besides, in data set [5], the IC50 entry is “Not Active”. For the same compound, the inhibition constant (Ki) result (in data set [2]; at Cytochrome P450 2A6; in data set [3]) was “Not Active” each time.

Consider `Cc1c(O)cccc1C(=O)N[C@@H](CSc1ccccc1)[C@H](O)CN1C[C@H]2CCCC[C@H]2C[C@H]1C(=O)NC(C)(C)C`, for which the 50% inhibitory concentration (IC50) result (in data set [1] (cho-k1); against Interstitial collagenase; in data set [2]; against Cytochrome P450 2A6; in data set [3]; in data set [4]) was “Not Active” each time. For the same compound, the IC50 entry in data set [5] is recorded as “Not Active”. Besides, the Ki result (in data set [2]; at Cytochrome P450 2A6; in data set [3]) was “Not Active” each time.

With `CC(O)COC[C@H]1O[C@@H]2O[C@H]3[C@H](O)[C@@H](O)[C@@H](O[C@H]4[C@H](O)[C@@H](O)[C@@H](O[C@H]5[C@H](O)[C@@H](O)[C@@H](O[C@H]6[C@H](O)[C@@H](O)[C@@H](O[C@H]7[C@H](O)[C@@H](O)[C@@H](O[C@H]8[C@H](O)[C@@H](O)[C@@H](O[C@H]1[C@H](O)[C@H]2O)O[C@@H]8COCC(C)O)O[C@@H]7COCC(C)O)O[C@@H]6COCC(C)O)O[C@@H]5COCC(C)O)O[C@@H]4COCC(C)O)O[C@@H]3COCC(C)O` (stereo partly drawn) [2-HYDROXYPROPYL-BETA-CYCLODEXTRIN], the IC50 in data set [1] (read-out: IC50) is 63 nM; on Interstitial collagenase, “Not Active”; in data set [2], “Not Active”; on Cytochrome P450 2A6 it was “Not Active”; in data set [3], “Not Active”; in data set [4], “Not Active”. For the same compound, in data set [5], the half-maximal inhibitory concentration (IC50) result is “Not Active”. The inhibition constant (Ki) (in general, a measure of affinity in units of concentration, obtained from inhibition or displacement) was 40 nM in data set [1] (read-out: Ki), “Not Active” in data set [2], “Not Active” on Cytochrome P450 2A6 and “Not Active” in data set [3].

In the case of `NC(=O)c1cccc(N)c1` [3-AMINOBENZAMIDE], the IC50 result (in data set [1] (cho-k1); against Interstitial collagenase; in data set [2]; against Cytochrome P450 2A6; in data set [3]; in data set [4]) was “Not Active” each time. The IC50 result in data set [5] is listed as “Not Active”. The inhibition constant (Ki) entry (in data set [2]; on Cytochrome P450 2A6; in data set [3]) was “Not Active” in each case.

For `C[C@H]1O[C@H](O[C@H]2[C@H](O)[C@@H](O)[C@@H](O[C@H]3[C@H](O)[C@@H](O)C(O)O[C@@H]3CO)O[C@@H]2CO)[C@H](O)[C@@H](O)[C@@H]1N[C@H]1C=C(CO)[C@@H](O)[C@H](O)[C@H]1O` (stereo partly specified) [ACARBOSE], the IC50 entry (in data set [1] (cho-k1); against Interstitial collagenase; in data set [2]; on Cytochrome P450 2A6; in data set [3]; in data set [4]) was “Not Active” throughout. For the same compound, in data set [5], the half-inhibitory concentration (IC50) result was “Not Active”. Besides, the Ki result (in data set [2]; on Cytochrome P450 2A6; in data set [3]) was “Not Active” each time.

For `CC[C@H]1[C@@H]2C[C@H]3[C@@H]4N(C)c5ccccc5[C@]45C[C@@H]([C@@H]2[C@H]5O)N3[C@@H]1O` [AJMALINE], the IC50 result (in data set [1] (cho-k1); on Interstitial collagenase; in data set [2]; at Cytochrome P450 2A6; in data set [3]; in data set [4]) was “Not Active” throughout. The half-maximal inhibitory concentration (IC50) entry in data set [5] is reported as “Not Active”. Moreover, the Ki entry (in data set [2]; on Cytochrome P450 2A6; in data set [3]) was “Not Active” in each case.

Regarding `NC12CC3CC(CC(C3)C1)C2` [AMANTADINE], the IC50 result (in data set [1] (cho-k1); against Interstitial collagenase; in data set [2]; in data set [3]; in data set [4]; in data set [5]) was “Not Active” throughout. Moreover, the inhibition constant (Ki) entry in data set [2] and in data set [3] was “Not Active” in each case.

In the case of `CN(C)CCC=C1c2ccccc2CCc2ccccc21` [AMITRIPTYLINE], the IC50 entry (against Interstitial collagenase; in data set [2]; at Cytochrome P450 2A6; in data set [3]; in data set [4]; in data set [5]) was “Not Active” throughout. For the same compound, the Ki result (in data set [2]; on Cytochrome P450 2A6; in data set [3]) was “Not Active” throughout.

Take `CC(=O)OCC(=O)[C@@]12OC(C)(C)O[C@@H]1C[C@H]1[C@@H]3C[C@H](F)C4=CC(=O)C=C[C@]4(C)[C@@]3(F)[C@@H](O)C[C@@]12C` [FLUOCINONIDE]: the concentration for half-maximal inhibition (IC50) result (in data set [1] (cho-k1); against Interstitial collagenase; in data set [2]; in data set [3]; in data set [4]; in data set [5]) was “Not Active” each time. The inhibition constant Ki result in data set [2] and in data set [3] was “Not Active” in each case.

As for `N[C@@H](Cn1ccc(=O)c(O)c1)C(=O)O` [L-MIMOSINE], the IC50 entry (in data set [1] (cho-k1); at Interstitial collagenase; in data set [2]; in data set [3]; in data set [4]; in data set [5]) was “Not Active” throughout. The Ki entry in data set [2] and in data set [3] was “Not Active” in each case.

As to `C[C@@H]1C/C=C/C=C/C=C/C=C/[C@H](O[C@@H]2O[C@H](C)[C@@H](O)[C@H](N)[C@@H]2O)C[C@@H]2O[C@](O)(C[C@@H](O)C[C@H]3O[C@@H]3/C=C/C(=O)O1)C[C@H](O)[C@H]2C(=O)O` [NATAMYCIN], the 50% inhibitory concentration (IC50) result (in data set [1] (cho-k1); against Interstitial collagenase; in data set [2]; in data set [3]; in data set [4]; in data set [5]) was “Not Active” throughout. The Ki result in data set [2] and in data set [3] was “Not Active” in each case.
